# Experiments:
# [1] = system: OATP1B1; test: OATP1B1 mRNA expression levels; assay type: cell-based, human; settings: protocol B plus compound compared to protocol A; day 36; protocol B alone also increases; FIG. 2 F
# Description: Following the basic protocol B, ChiPSC4-derived hepatocytes cultured on a Collagen I-Fibronectin-based coating were treated with 0.5 μM 10Z-Heptadecenoic acid, 0.5 μM Arachidonic acid, 0.5 μM Calcitriol, 5 μM CGP 52608, 0.2 μM Cholecalciferol, 5 μM PP1, 0.5 μM D-erythro-Sphingosine, 0.2 μM 13 cis-RA, 0.5 μM L-erythro MAPP, 0.5 μM PAF C16, 0.5 μM C16 Ceramide, or different combinations of these compounds from day 21 of the differentiation protocol and onwards (FIG. 2).
# [2] = system: ChiPSC4-derived hepatocytes; test: CYP activity assay, Example 4, basic protocol B; settings: single compounds 0.2-5 μM or combinations, from day 21 onwards, Collagen I-Fibronectin-based coating, day 29, FIG. 2 A-D
# Description: (§1) On day 29 and 36 of the differentiation protocol, the cell cultures are subjected to a CYP activity assay according to the following protocol: Cells are washed twice with warm Williams's medium E w/o phenol red (+0.1% PEST). Then CYP activity assay, consisting of warm Williams medium E w/o phenol red (+0.1% PEST), 2 mM L-Glutamine, 25 mM HEPES, 10 μM Phenacetin (model substrate for CYP1A), 10 μM Bupropion (model substrate for 2B6), 10 μM Diclofenac (model substrate for CYP2C9), 10 μM Bufuralol (model substrate for 2D6), and 5 μM Midazolam (model substrate for CYP3A), is added to the cells (e.g. 110 μl/cm^2) and incubated for 16 hr at 37° C. Then 100 μl of the supernatant is transferred into a 96 well plate which is sealed with a tight seal tape and stored at −80° C. until LC/MS-analysis of metabolite formation: Acetaminophen (Paracetamol) for CYP1A, OH-Bupropion for CYP2B6, OH-Diclofenac for CYP2C9, OH-Bufuralol for CYP2D6, and OH-Midazolam for CYP3A. […]
# On day 29 of the differentiation protocol, the cell cultures are subjected to a CYP activity assay according to the protocol described in Example 3. In some experiments, 50 μM Mephenytoin (model substrate for 2C19) was included additionally to the substrates mentioned above and then the formation of the metabolite OH-Mephenytoin was measured by LC/MS in order to determine CYP2C19 activity.
# [3] = system: hiPS cell-derived hepatocytes; test: CYP activity assay (LC/MS metabolite formation), Example 3, basic protocol A; settings: single compounds, 0.2-50 μM, from day 21 onwards, Fibronectin-based coating, day 29 and 36, FIG. 1
# Description: Following the basic protocol A, hiPS cell derived hepatocytes cultured on a Fibronectin-based coating were treated with 0.5 or 5 μM 10Z-Heptadecenoic acid, 0.5 or 5 μM Arachidonic acid, 5 μM Calcifediol, 5 μM Calcitriol, 0.2 or 0.5 μM Cholecalciferol, 5 or 50 μM CGP 52608, 0.5 or 5 μM Docosahexaenoic acid, 0.5, 1.25, 2.5, 5, or 10 μM PP1, 0.5 or 5 μM PP2, 0.5 or 5 μM D-erythro-Sphingosine, or 0.5 or 5 μM Tetradecanoic acid from day 21 of the differentiation protocol and onwards (FIG. 1).
# as §1, with “C.” for “C. Then 100 μl of the supernatant is transferred into a 96 well plate which is sealed with a tight seal tape and stored at −80° C. until LC/MS-analysis of metabolite formation: Acetaminophen (Paracetamol) for CYP1A, OH-Bupropion for CYP2B6, OH-Diclofenac for CYP2C9, OH-Bufuralol for CYP2D6, and OH-Midazolam for CYP3A.”
SMILES,OATP1B1 mRNA levels [1],CYP activity levels [2],CYP activity levels [3]
"CCCCCC/C=C\CCCCCCCCC(=O)O [10Z-Heptadecenoic acid, 10Z-heptadecenoic acid]",increase,,
"CC1=C(/C=C/C(C)=C/C=C/C(C)=C\C(=O)O)C(C)(C)CCC1 [13 cis-RA, 13-cis-retinoic acid]",,increase CYP activity levels,
"C=C1CC[C@H](O)C/C1=C/C=C1\CCC[C@]2(C)[C@@H]([C@H](C)CCCC(C)C)CC[C@@H]12 [Cholecalciferol, cholecalciferol]",,increase CYP activity levels,increase CYP activity levels
"CC(C)(C)n1nc(-c2ccc(Cl)cc2)c2c(N)ncnc21 [PP2, 3-(4-chlorophenyl) 1-(1,1-dimethylethyl)-1H-pyrazolo[3,4-d]pyrimidin-4-amine]",,,increase CYP activity levels
